The values below come from article PMC6987128, “Target protein-oriented isolation of Hes1 dimer inhibitors using protein based methods” (Scientific Reports, 2020).

For this experiment, the target named is T1, Hes1 dimer formation (Hes1-Hes1 interaction) (Rattus norvegicus, UniProt Q04666).
T1 construct: Glutathione-S-transferase (GST) fused rat Hes1(3–281) protein was expressed in Escherichia coli; GST (N, cleaved yes); GST (N); made in house; host or cells: Escherichia coli JM109 (pGEX-ratHes1 3-281)
T1 sequence (Q04666 3-281): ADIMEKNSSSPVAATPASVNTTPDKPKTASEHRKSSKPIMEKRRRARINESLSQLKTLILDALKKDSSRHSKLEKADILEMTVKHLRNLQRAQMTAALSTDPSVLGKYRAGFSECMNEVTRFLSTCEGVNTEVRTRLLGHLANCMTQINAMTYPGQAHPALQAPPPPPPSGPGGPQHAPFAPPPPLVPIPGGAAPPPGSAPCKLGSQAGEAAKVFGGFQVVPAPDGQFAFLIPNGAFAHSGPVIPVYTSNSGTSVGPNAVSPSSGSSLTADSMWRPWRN
The experiment is described as follows: Hes1-Hes1 interaction fluorescent plate assay (Hes1 dimer formation inhibition). The class given is binding. The source says: It is essential to inhibit undesired PPIs in drug development, and bioactivity-guided isolation using the inhibitory activity of PPIs is an attractive method to obtain effective inhibitors. However, currently there are only a few examples of such approaches using PPI assay systems[22],[23]. We previously developed a Hes1-Hes1 interaction fluorescent plate assay and reported the screening results of our natural products compound library (Fig. 2A)[24]. Glutathione-S-transferase (GST) fused rat Hes1(3–281) protein was expressed in Escherichia coli and purified rat Hes1 protein was immobilized on the bottom of 96 well plates. We prevented GST-GST interactions, which would result in false positives, by preparing GST-free Hes1 protein by GST cleavage with Turbo3C protease. After labeling Hes1 with Cy3, this florescent Hes1 protein was added to the wells of the above plate and incubated for 24 h at 4 °C. Hes1-Hes1 interaction was successfully detected as Cy3 fluorescence intensity. Using this assay system, we screened our 118 plant extract library and identified the MeOH extract of Psidium guajava leaves to contain naturally occurring compounds that inhibit Hes1 dimer formation. The MeOH extract (29.9 g) was fractionated using Diaion HP-20 with a MeOH-acetone solvent system to afford fractions 1A to 1C. Active fraction 1A (27.2 g) was suspended in 10% aq. MeOH and partitioned with hexane, EtOAc and BuOH to obtain hexane (1.1 g), EtOAc (5.7 g), BuOH (4.7 g) and aqueous (18.9 g) soluble fractions. Part of the active BuOH soluble fraction was subjected to ODS column chromatography and reverse-phase HPLC. Activity-guided separation yielded ten compounds (1–10; Fig. 3). The isolated compounds were identified as morin (1)[25], isoquercitrin (2)[26], methyl gallate (3)[27], (+)-catechin (4)[28],[29], dihydrophaseic acid (5)[30], quercetin (6)[26],[31], avicularin (7)[32],[33], gallic acid (8)[34], protocatechuic acid (9)[35] and 4-hydroxybenzoic acid (10)[36] based on comparisons of their spectral data with spectra in the literature.
Hes1-bound microplate wells[24] (Nunc Immobilizer^TM Amino Plate, Thermo) were incubated with 50 μL of Cy3-labeled-Hes1 in NET-N buffer (NET buffer (20 mM Tris-HCl, pH 7.5, 200 mM NaCl, 1 mM EDTA) containing 0.05% Nonidet® P-40, ca. 7 mg/L, dye/protein = 0.4) for 24 h at 4 °C. After removing the protein solution, the wells were washed twice with 200 μL of PBST, then each compound solution (in NET-N buffer, 50 μL) was added and the plates were incubated for 1 h at RT in the dark. The wells were washed twice with 200 μL of PBST, then dried under reduced pressure for 1 h in the dark. The Cy3 dye was excited at 544 nm and emission was monitored at 590 nm using a microplate reader (Fluoroskan Ascent, Thermo Labsystems, Vantaa, Finland). The assays were typically carried out in three individual wells, and the mean value and SD were calculated. The equilibrium between dimer formation between Cy3-Hes1/Cy3-Hes1 (in solution) and Cy3-Hes1/immobilized-Hes1 allowed the detection of Cy3-Hes1/immobilized-Hes1.
Typical procedure; Nunc Immobilizer^TM Amino 96 well Plate, white (Nalge Nunc Int., NY, USA) was used for immobilizing of Hes1. The micro plate wells were incubated with 100 µl of Hes1 (10 µg/mL in PBS) 2 h at 4 °C. After removing protein solution, the wells were incubated for 2 h at 4 °C with 100 µL of 10 mM ethanolamine (in 100 mM Na2CO3 buffer, pH 9.6) to block remaining activated units on the well. Then, wells were washed twice with 200 µL of PBST (PBS containing 0.05% Tween 20).
The Cy3 dye reagent was prepared as 1 vial of Cy3 monofunctional dye reagent (succinimidylester type; GE Healthcare, Buckinghamshire, UK) in DMSO (50 µL) and stored at -20 °C. Cy3-labeled Hes1 was prepared by mixing of protein in PBS with Cy3 dye reagent in DMSO (typically 0.6 µL of DMSO solution to 1 mL of 10 mg/L protein solution in PBS) for 30 min at 4 °C in the dark. […]

In general, IC50 refers to the point on the concentration scale where inhibition reaches its midpoint. Regarding `CC1OC(Oc2cc3c(=O)oc4c(O)c(O)cc5c(=O)oc(c2O)c3c45)C(O)C(O)C1OC(=O)c1cc(O)c(O)c(O)c1` [Compound 11, 4-O-(4″-O-galloyl-α-L-rhamnopyranosyl)ellagic acid], the remaining activity at 2.5 µM (24 h, 2.5 μM compound, 0 μM = 100, read-out: Hes1 dimer formation rate (%)) is 50.4%. Further, the remaining activity at 5 µM (24 h, 5 μM compound, 0 μM = 100, read-out: Hes1 dimer formation rate (%)) worked out at 27.6%. The remaining activity at 10 µM (24 h, 10 μM compound, 0 μM = 100, read-out: Hes1 dimer formation rate (%)) stood at 18.1%. Moreover, for the setting “24 h, 25 μM compound, 0 μM = 100, read-out: Hes1 dimer formation rate (%)”, the remaining activity at 25 µM was 4.1%. Further, the IC50 (Cy3-labeled Hes1 / immobilized Hes1, compound 1 h at RT, read-out: Hes1 dimer formation inhibitory activity IC50) stood at 2530 nM.
